The values that follow come from patent publication US20040058999A1, “Compounds with anti-hiv activity” (priority 2002, published 2004).

Like-named read-outs stand apart in the source and are kept apart here.

The test system of one data set is HTLV IIIB. The data set is described as follows: HTLV IIIB-inhibitory activity on cultures of lymphocytes, % virus inhibition by PCR. The format is cell-based. As for the experimental part:
HTLV IIIB-inhibitory activity of Xenaldial was tested on cultures of lymphocytes. The % virus inhibition was determined by means of PCR, according to the following procedure:
DNA was extracted from 5×10^4 lymphocytes using 400 μl lysate and incubating at 56° C./60′ and at 92° C./15′. Afterwards the mixture was cooled at room temperature and kept at 4° C.
The oligonucleotide SK19 (41 bases—corresponding to the internal sequence of the amplified pro-viral DNA) was synthesised, dissolved in water at a final concentration of 20 μm and 5′-labelled with polynucleotide kinase and ^32P-ATP.
Reagent preparation: Nucleotides: 125 μl of each nucleotide 10 mM were diluted to 1 ml with H2O (final concentration 1.25 mM); buffer 10×: KCl 2M—250 μl, TrisCl 1M pH8.3—100 μl, MgCl2 1M—20 μl, gelatine—10 mg, diluted to 1 ml with H2O;
Oligonucleotide pair: oligonucleotides SK38 and 39 were synthesised, purified and dissolved in a concentration of 200-300 μM.
Reaction: mixing buffer 10×, nucleotides (1.25 mM), oligonucleotide primer SK38 and SK39 15 μM, lysate, Taq polymerase 5 U/μl; denaturation 90° C./60′, annealing 55° C./30′, polymerisation 72° C./30′; repeat the cycle 30 times.

The next data set concerns A-PR8 Influenza virus. Conditions: in words; cited from earlier work.
In data set [1] the test system is HIV virus. The data set is described as follows: Viral growth curve in infected lymphoblasts cultures in the presence of the tested compounds. The format is cell-based. On the procedure:
(§1) Lymphoblasts cultures in stationary tubes (inoculum 200,000 cells/ml) at the 4th day from implant were used. A lactalbumin medium enriched with 20% decomplemented calf serum medium was used as culture medium (TC) and, as maintaining medium (TM), after infection of the cultures, a 199 supplemented with 1% bovine crystallized albumin and 2% calf serum was used. All media were added with penicillin (100 U.I/ml) and streptomycin (100 μg/ml). Viral dilutions were carried out with 199 only.
Xenalamine (p-α-ethoxy-p-phenyl-phenacylaminobenzoic acid), xenalic acid (p-(4-biphenyl-glyoxylidene)-amino-benzoic acid) at a 12.5 μg dose; xenaldial (4,4′-bis-diphenylglyoxal hydrate) at a 25 μg dose.
The following procedure was used to evaluate the viral growth curve in the presence of the tested compounds: cultures were infected with 1 ml of viral fluid containing a cytopathogenic dose to obtain an about 1:1 LD50/cell ratio. 1 Hour after the infection at +36° C. and repeated washings with Hanks balanced saline solution, the viral fluid was replaced with TM for the control groups and with TM+drug for the tested cultures.
At time intervals, aliquots from three cultures were taken, washed with Hanks solution, then added with 1 ml of TM and frozen at −30° C.
At the end of the experiment, the culture fluids were thawed and refrozen twice, pooling each aliquot, then titred simultaneously with the corresponding fluids separated before freezing.

Data set [2] relates to HIV virus. The format is cell-based. Conditions: for Neutralization Index: 200 μg/ml, 37°-1 h; for Viral titre after incubation at 37°-1 h with 200 μg/ml of drug: mean of 3 experiments.
Another data set relates to MHV-3 hepatitis virus. Conditions: in words; cited from earlier work.
The subject of data set [3] is various Arborvirus, Poxvirus, Nitavirus and Myxovirus strains. Conditions: in words; cited from earlier work.
The test system of a further data set is Lymphoblasts cultures. Briefly: Maximal dose tolerated by the cultures. The format is cell-based. Conditions: established in previous experiments. As for the experimental part:
as §1
The dose used for each drug is the maximal dose tolerated by the cultures, established in previous experiments.

`O.O.O=CC(=O)c1ccc(-c2ccc(C(=O)C=O)cc2)cc1` [xenaldial, 4-4′-bis-biphenylglyoxal dihydrate]: the Inhibition % with HTLV IIIB (0.001 μM) is on record as 44%; with HTLV IIIB (0.01 μM), 30%; in the data set with HTLV IIIB (0.1 μM), 12%; in the data set with HTLV IIIB (1 μM), 16%; in the data set with HTLV IIIB (5 μM), 42%; in the data set on HTLV IIIB (20 μM), 26%. For the same compound, the Inhibition % in the data set on HTLV IIIB (60 μM) is 59%; in the data set on HTLV IIIB (100 μM) it was 77%. Moreover, the antiviral activity entry (in the data set on A-PR8 Influenza virus; with MHV-3 hepatitis virus; in data set [3]) was “active” each time. For the same compound, the “delay in the appearance of the virus in fluids compared with controls” value in the data set on HIV virus [1] (drug added 1 h after infection, xenalamine 12.5 μg/ml, xenaldial 25 μg/ml) amounted to 24 h. In addition, the “reduction of the intra- and extracellular virus amount compared with controls, time up to which observed” value with HIV virus [1] (xenaldial 25 μg/ml added 1 h and again 48 hours after the infection) was “up to 120 hours”. Besides, the “reduction of the pathogenic activity of the virus upon exposure (% of the logarithmic values compared with controls)” value in the data set with HIV virus [2] (high viral titre) is on record as 8.3%; in the data set with HIV virus [2] (low viral titre) it was 42.8%. The “Neutralization Index” value in the data set on HIV virus [2] (high viral titre (starting stock 6.5)) amounted to 0.5; in the data set with HIV virus [2] (low viral titre (starting stock 4.5)), 1.5. In addition, the “Viral titre after incubation at 37°-1 h with 200 μg/ml of drug” value with HIV virus [2] (high viral titre: starting stock titre 6.5, control after incubation 6.2) is given as 6.0; in the data set on HIV virus [2] (low viral titre: starting stock titre 4.5, control after incubation 3.5), 2.0. Also, the “virucidal activity (on extracellular viral particles)” value with HIV virus [2] (in words) is “marked virucidal activity”. Besides, the “maximal dose tolerated by the cultures” value in the data set on Lymphoblasts cultures is 25 µg.

As to `O=C(O)c1ccc(N=CC(=O)c2ccc(-c3ccccc3)cc2)cc1` [xenalic acid, p-(4-biphenyl-glyoxylidene)-amino-benzoic acid], the “inhibitory effect on intracellular viral replication” value in the data set on HIV virus [1] (same experimental conditions, compared with xenaldial) is given as “lower than that of xenaldial”. Moreover, in the data set with HIV virus [2], the “virucidal activity (on extracellular viral particles)” value is recorded as “marked virucidal activity”. For the same compound, in the data set on Lymphoblasts cultures, the “maximal dose tolerated by the cultures” value is 12.5 µg.
